Source: paper PMC5062570 (Nature Communications, 2016)

Tests used:
CatE = molecular target: T1, CatE (Homo sapiens, UniProt P14091); experiment: CatE purified enzyme fluorescence polarization assay; type: biochemical
T1 construct: purchased Creative BioMart CTSE-255H
T1 sequence (P14091 54-396): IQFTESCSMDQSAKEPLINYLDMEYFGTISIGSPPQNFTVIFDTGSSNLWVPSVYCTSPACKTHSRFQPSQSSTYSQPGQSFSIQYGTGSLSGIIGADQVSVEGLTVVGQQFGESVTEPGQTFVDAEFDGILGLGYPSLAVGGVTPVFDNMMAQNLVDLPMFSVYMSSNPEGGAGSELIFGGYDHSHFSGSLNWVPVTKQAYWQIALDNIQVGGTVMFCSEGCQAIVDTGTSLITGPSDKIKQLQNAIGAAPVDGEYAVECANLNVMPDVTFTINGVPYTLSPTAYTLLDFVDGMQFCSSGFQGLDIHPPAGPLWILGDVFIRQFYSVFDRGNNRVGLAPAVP
Experimental: Purified enzyme inhibition of BACE1, BACE2, CatD and CatE was determined using fluorescence polarization (FP) assays. Briefly, purified enzymes were treated with test compounds (1% DMSO, 37 °C) in the presence of synthetic peptide substrates (150 nM) in 30 μl total volume of NaOAc buffer (100 mM, pH 4.5, 0.0001% Tween-20) in a 384-well plate. After incubation, reactions were stopped and substrate captured by the addition of 1.5 μM streptavidin, and FP measured with an EnVision plate reader (PerkinElmer, excitation 485 nm, emission 530 nm). […] BACE2 activity was assessed with 0.5 nM recombinant BACE2 (R&D Systems 4097-AS) and the same synthetic substrate used for BACE1, with a 1 h incubation time. […] CatE activity was assessed with 1.0 nM recombinant CatE (Creative BioMart CTSE-255H) and the same synthetic substrate used for CatD, with a 1.5 h incubation time.

CatD = conditions: cited from earlier work

Question: Which results are given for Cc1cc([C@H]2C[C@H]3[C@@H](C)SC(N)=N[C@@]3(c3ccc(F)cc3F)CO2)on1 [PF-9283]?
Answer: IC50 (CatE): 24 µM; selectivity ratio (CatD): 210
